Results published in PMC9023165, “Antioxidant, Enzyme Inhibitory, and Molecular Docking Approaches to the Antidiabetic Potentials of Bioactive Compounds from Persicaria hydropiper L” (Evidence-based Complementary and Alternative Medicine : eCAM, 2022).
Converted amounts (≈) assume the structure as drawn. Read-outs that look alike come from different tables or passages of the source.

Legend:
DPPH antiradicals assay = test: DPPH antiradicals assay
Procedure: DPPH antiradicals study was conducted in accordance with our previously published protocol. Initially, 0.1% methanolic-DPPH solution was made and its 100 µL was mixed with same volume (100 µL) of test samples in 96-well plates, followed by incubation for about thirty min in a dark place 25 ± 3°C. […] Percent scavenging was estimated as follows:(1) % scavenging=A0−A1/A0×100.

ABTS antiradicals assay = test: ABTS antiradicals assay
Procedure: ABTS antiradicals' study was performed following our earlier reported protocol. For preparation of ABTS solution, 192 mg of ABTS salt was mixed in distilled water with subsequent transfer to fifty-milliliter flask and volume adjustments. Thereafter, 1 mL of the previous solution was added to 17 µL of 140 mM potassium persulphate and the mixture was left in the dark for 24 hours. Subsequently, 1 mL of the reaction mixture was diluted to 50 mL using methanol to obtain the final ABTS dilution used in the assay. Consequently, 190-microliter ABTS solution was added to 10 µL sample solutions and in 96-well plates and were incubated for 2 hrs in dark place at room temperature. After the incubation, decline in color intensity of ABTS was measured at 734 nm via microplate reader. […] Percent ABTS scavenging was determined using equation:(2) %ABTS scavenging=Control absorbance−Sample absorbance/Control absorbance×100.

α-glucosidase enzyme = α-glucosidase enzyme (Saccharomyces cerevisiae, UniProt P53341); test: α-glucosidase inhibition assay; type: biochemical
Chain of α-glucosidase enzyme (P53341 whole entry): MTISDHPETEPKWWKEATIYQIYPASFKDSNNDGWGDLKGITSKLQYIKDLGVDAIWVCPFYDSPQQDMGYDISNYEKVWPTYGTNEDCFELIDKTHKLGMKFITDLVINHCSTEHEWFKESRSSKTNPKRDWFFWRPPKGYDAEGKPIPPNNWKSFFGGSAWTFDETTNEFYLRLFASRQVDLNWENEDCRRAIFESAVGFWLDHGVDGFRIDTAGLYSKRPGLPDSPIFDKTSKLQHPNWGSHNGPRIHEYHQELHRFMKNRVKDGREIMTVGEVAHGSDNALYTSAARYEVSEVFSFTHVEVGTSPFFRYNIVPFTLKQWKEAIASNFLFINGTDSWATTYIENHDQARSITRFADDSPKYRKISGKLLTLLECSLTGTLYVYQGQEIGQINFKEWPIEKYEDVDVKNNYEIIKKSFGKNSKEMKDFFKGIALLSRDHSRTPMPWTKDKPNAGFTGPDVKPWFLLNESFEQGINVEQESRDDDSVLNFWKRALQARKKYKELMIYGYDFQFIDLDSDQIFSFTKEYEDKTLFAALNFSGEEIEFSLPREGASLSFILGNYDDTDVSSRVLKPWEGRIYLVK
Procedure: For α-glucosidase inhibition assay, 50 µL solution containing 0.5 U·mL^−1 was added to 50 µL phosphate buffer (6.8 pH) and was added to various concentrations of test samples. The resultant mixture was properly mixed and stored at 37°C for fifteen min. After incubation, 100 µL (3 mM) pNPG solution was added to it. […] Absorption was measured at 405 nm using 96-well microplate reader. Absorption of mixture without addition of test samples was used as control and without substrate was used as blank. Percent inhibitions were calculated using the formula(3) % Inhibition=1−absorbance of sample−absorbance of blank/absorbance of control×100.

α-amylase enzyme = biological target: T1, α-amylase enzyme (Sus scrofa, UniProt P00690); test: α-amylase inhibition assay; type: biochemical; conditions: Mean ± SEM
T1 sequence (P00690 16-511): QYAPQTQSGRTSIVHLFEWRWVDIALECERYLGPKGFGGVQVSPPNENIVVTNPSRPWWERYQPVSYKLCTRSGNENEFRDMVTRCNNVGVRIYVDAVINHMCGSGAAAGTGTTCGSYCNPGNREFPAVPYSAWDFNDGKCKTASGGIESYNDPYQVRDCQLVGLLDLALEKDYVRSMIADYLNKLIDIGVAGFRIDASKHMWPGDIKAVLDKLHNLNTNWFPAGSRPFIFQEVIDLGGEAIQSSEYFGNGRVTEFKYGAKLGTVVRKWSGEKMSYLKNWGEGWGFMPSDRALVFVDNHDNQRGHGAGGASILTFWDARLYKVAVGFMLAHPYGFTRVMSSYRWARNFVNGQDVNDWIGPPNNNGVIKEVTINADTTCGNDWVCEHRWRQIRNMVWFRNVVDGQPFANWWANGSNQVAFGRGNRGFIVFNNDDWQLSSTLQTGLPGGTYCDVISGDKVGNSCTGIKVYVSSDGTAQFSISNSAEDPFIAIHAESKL
Procedure: Using this assay, a previously reported protocol was followed. […] Subsequently, 100 µL of 0.5 mg·mL^−1α-amylase solution was added to the mixture and again incubated for 10 min at 25°C. Reaction was stopped via the addition of 200 µL of dinitrosalicylic acid was added and incubated for an additional 5 min in boiling water bath and allowed to cool again. Finally, 50 µL solutions was transferred to 96-well microplate reader and further diluted to 200 µL via the addition of distilled water. Absorbencies were recorded at 540 nm and percent inhibitions were calculated using the equation(4) % Inhibition=1−Δ A Samples/Δ A Control×100.

Row | Structure (SMILES) | IC50 DPPH scavenging (DPPH antiradicals assay) | % scavenging effect against DPPH radicals (DPPH antiradicals assay; 31.25 µg·mL^−1) | % scavenging effect against DPPH radicals (DPPH antiradicals assay; 62.50 µg·mL^−1) | % scavenging effect against DPPH radicals (DPPH antiradicals assay; 125 µg·mL^−1) | % scavenging effect against DPPH radicals (DPPH antiradicals assay; 250 µg·mL^−1) | % scavenging effect against DPPH radicals (DPPH antiradicals assay; 500 µg·mL^−1) | % scavenging effect against DPPH radicals (DPPH antiradicals assay; 1000 µg·mL^−1) | IC50 against ABTS radicals (ABTS antiradicals assay) | % inhibition against ABTS radicals (ABTS antiradicals assay; 1000 µg·mL^−1) | also measured
1 | CC(=O)OC1COC(=O)C1C (stereo not drawn) [Ph-3, 4-methyl-5-oxo-tetrahydrofuran-3-yl acetate] | 550 µg/mL | 9.2% | 18.5% | 29.66% | 33.33% | 42% | 56% | 320 µg/mL | 67.16% | –
2 | COc1cc(/C=C/c2ccccc2)oc(=O)c1 [Ph-6, (E)-4-methoxy-6-styryl-2H-pyran-2-one] | 910 µg/mL (≈ 3990 µM) | – | – | – | – | – | 44% | 550 µg/mL (≈ 2410 µM) | 61% | –
3 | COC(=O)c1ccc(O)c(OC)c1 [Ph-4, methyl 4-hydroxy-3-methoxybenzoate] | 650 µg/mL (≈ 3570 µM) | 7.6% | 12.06% | 19.85% | 27.48% | 48.73% | 60.26% | 610 µg/mL (≈ 3350 µM) | 53.66% | –
4 | CCOc1cc(C(C)=O)c2cc(OC)ccc2c1 [Ph-5, 1-(3-ethoxy-7-methoxynaphthalen-1-yl)ethanone] | 390 µg/mL (≈ 1600 µM) | – | – | – | – | – | 58.33% | 350 µg/mL (≈ 1430 µM) | 69.16% | IC50 against ABTS radicals (ABTS antiradicals assay; in Figure 3): 390 µg/mL (≈ 1600 µM)
5 | O=C1O[C@H]([C@@H](O)CO)C(O)=C1O [ascorbic acid, reference compound] | 40 µg/mL (≈ 227 µM) | 45% | 56.83% | 62.33% | 72.85% | 83.33% | 91.80% | – | – | –
6 | CCC(/C=C/C(C)C1CCC2C3CC=C4CC(O)CCC4(C)C3CCC12C)C(C)C (stereo not drawn) [Ph-2, (E)-17-(5-ethyl-6-methylhept-3-en-2-yl)-10,13-dimethyl-2,3,4,7,8,9,10,11,12,13,14,15,16,17-tetradecahydro-1H-cyclopenta[a]phenanthren-3-ol] | 200 µg/mL (≈ 485 µM) | 11.83% | 21.33% | 34.16% | 59.66% | 68% | 79.33% | 160 µg/mL (≈ 388 µM) | 80.63% | % inhibition against ABTS radicals (ABTS antiradicals assay; 31.25 µg·mL^−1): 17.44%; % inhibition against ABTS radicals (ABTS antiradicals assay; 62.5 µg·mL^−1): 27.88%; % inhibition against ABTS radicals (ABTS antiradicals assay; 125 µg·mL^−1): 42.89%; % inhibition against ABTS radicals (ABTS antiradicals assay; 250 µg·mL^−1): 60.56%; % inhibition against ABTS radicals (ABTS antiradicals assay; 500 µg·mL^−1): 72.68%
7 | C[C@H]1O[C@H](O[C@H]2[C@H](O)[C@@H](O)[C@@H](O[C@H]3[C@H](O)[C@@H](O)C(O)O[C@@H]3CO)O[C@@H]2CO)[C@H](O)[C@@H](O)[C@@H]1N[C@H]1C=C(CO)[C@@H](O)[C@H](O)[C@H]1O (stereo partly drawn) [Acarbose] | – | – | – | – | – | – | – | – | – | α-Glucosidase inhibition assay % enzyme inhibition (α-glucosidase enzyme): 89.42 ± 0.55 77.52 ± 0.62 71. 36 ± 0.49 62.39 ± 0.49 55.47 ± 0.52%; α-Amylase Inhibition assay % enzyme inhibition (α-amylase enzyme; 62.50 µg·mL^−1): 59.36 ± 0.57%; α-Amylase Inhibition assay % enzyme inhibition (α-amylase enzyme; 125 µg·mL^−1): 65.48 ± 0.74%; α-Amylase Inhibition assay % enzyme inhibition (α-amylase enzyme; 250 µg·mL^−1): 73.62 ± 0.40%; α-Amylase Inhibition assay % enzyme inhibition (α-amylase enzyme; 500 µg·mL^−1): 78.60 ± 0.46%; α-Amylase Inhibition assay % enzyme inhibition (α-amylase enzyme; 1000 µg·mL^−1): 85.72 ± 0.66%
